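48-hour exposure; five concentrations; linearly interpolated endpoints. The concentration for full growth arrest is given as TGI.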 Where a SMILES comes first, the peptide text is derived from it. The star is where a group is joined. Boc = CC(C)(C)OC(=O)*; OSu = O=C1CCC(=O)N1O*

Consider 20 molecules from PubChem BioAssay (NCI).

Among the test systems are KM12 colon; IGROV1 ovarian; SNB-75 CNS; NCI-H226 lung; PC-3 prostate; RPMI-8226 leukemia; DU-145 prostate; HOP-92 NSCLC; ACHN renal; NCI-H23 lung.
Holding throughout (test): NCI anticancer screen, dose series, 48 h

Take `CC(C)/C(Cl)=N\OC(=O)Nc1ccccc1F`: the TGI came to 40.3 µM in the assay with KM12 colon; 33.4 µM in the assay on IGROV1 ovarian; 23.1 µM in the assay on SNB-75 CNS; 28.8 µM in the assay with NCI-H226 lung; 30.9 µM in the assay with PC-3 prostate; 92.6 µM in the assay with RPMI-8226 leukemia. In addition, the TGI stood at 30 µM in the assay with DU-145 prostate, 4.06 µM in the assay with HOP-92 NSCLC, 24.9 µM in the assay with ACHN renal and 33.7 µM in the assay on NCI-H23 lung.

Take `O=C1CCC2(CC1CC(Sc1ccccc1)Sc1ccccc1)OCCO2` (stereo not given): the TGI with KM12 colon, in the assay on IGROV1 ovarian, in the assay with SNB-75 CNS, in the assay with NCI-H226 lung, with PC-3 prostate and with RPMI-8226 leukemia was greater than 100 µM in each case. The TGI in the assay on DU-145 prostate, in the assay on HOP-92 NSCLC, in the assay on ACHN renal and with NCI-H23 lung was greater than 100 µM throughout.

With `Cc1[nH]c2c(c1C)S(=O)(=O)c1cc3ccccc3nc1N2`, the TGI in the assay with KM12 colon is greater than 100 µM; in the assay on IGROV1 ovarian, 28 µM; in the assay on SNB-75 CNS, 45.7 µM; with NCI-H226 lung it was 66.5 µM; in the assay on PC-3 prostate, greater than 100 µM; in the assay with RPMI-8226 leukemia, 40.4 µM. Besides, the TGI with DU-145 prostate, with HOP-92 NSCLC, with ACHN renal and in the assay on NCI-H23 lung was greater than 100 µM each time.

In the case of `O=C1NC(SSC2=NNC3(C(=O)N2)c2ccccc2-c2ccccc23)=NNC12c1ccccc1-c1ccccc12`, the TGI in the assay with KM12 colon, in the assay with IGROV1 ovarian, in the assay on SNB-75 CNS, with NCI-H226 lung, with PC-3 prostate and with RPMI-8226 leukemia was greater than 10 µM in each case. The TGI in the assay on DU-145 prostate, with HOP-92 NSCLC, in the assay on ACHN renal and in the assay on NCI-H23 lung was greater than 10 µM in each case.

With `Cc1c(Cl)nc(Nc2nc3ccccc3[nH]2)nc1Cl`, the TGI with KM12 colon is 41.6 µM; in the assay with IGROV1 ovarian, greater than 100 µM; in the assay with SNB-75 CNS, greater than 100 µM; in the assay with NCI-H226 lung it was greater than 100 µM; in the assay with PC-3 prostate, greater than 100 µM; in the assay with RPMI-8226 leukemia, greater than 100 µM. The TGI is greater than 100 µM in the assay on DU-145 prostate, 18.6 µM in the assay on HOP-92 NSCLC, greater than 100 µM in the assay with ACHN renal and greater than 100 µM with NCI-H23 lung.

In the case of `CC(NC(=O)C(NC(=O)OC(C)(C)C)C(C)C)C(=O)NCC(=O)ON1C(=O)CCC1=O` (stereo not drawn) (Boc-Val-Ala-Gly-OSu; configuration not given here), the TGI with KM12 colon, in the assay on IGROV1 ovarian, in the assay on SNB-75 CNS, in the assay on NCI-H226 lung, in the assay on PC-3 prostate and in the assay with RPMI-8226 leukemia was greater than 100 µM in each case. The TGI with DU-145 prostate, with HOP-92 NSCLC, with ACHN renal and in the assay with NCI-H23 lung was greater than 100 µM each time.

Consider `O=C(O)c1cc2ccccc2c(N=Nc2ccc(S(=O)(=O)Nc3nccs3)cc2)c1O`, for which the TGI in the assay with KM12 colon, in the assay on IGROV1 ovarian, in the assay with SNB-75 CNS, in the assay with NCI-H226 lung, in the assay on PC-3 prostate and in the assay on RPMI-8226 leukemia was greater than 100 µM throughout. Also, the TGI with DU-145 prostate, in the assay with HOP-92 NSCLC, with ACHN renal and in the assay with NCI-H23 lung was greater than 100 µM throughout.

On to `CC1(C)N=C(C(N)=O)c2ncn(N)c2N1`, for which the TGI with KM12 colon, with IGROV1 ovarian, with SNB-75 CNS, with NCI-H226 lung, in the assay on PC-3 prostate and with RPMI-8226 leukemia was greater than 100 µM throughout. Besides, the TGI with DU-145 prostate, in the assay on HOP-92 NSCLC, with ACHN renal and in the assay with NCI-H23 lung was greater than 100 µM in each case.

On to `CCCCc1ccc(Nc2nc3c(ncn3C3CC(O)C(CN=[N+]=[N-])O3)c(=O)[nH]2)cc1` (stereo not given), for which the TGI with KM12 colon, with IGROV1 ovarian, in the assay on SNB-75 CNS, with NCI-H226 lung, with PC-3 prostate and in the assay with RPMI-8226 leukemia was greater than 100 µM each time. The TGI in the assay with DU-145 prostate, in the assay on HOP-92 NSCLC, in the assay with ACHN renal and with NCI-H23 lung was greater than 100 µM in each case.

On to `COc1ccc2nc3ccc(OC)cc3c(SCCO)c2c1`, for which the TGI with KM12 colon was greater than 63.8 µM; with IGROV1 ovarian it was greater than 51.1 µM; with SNB-75 CNS, 81.8 µM; in the assay on NCI-H226 lung, greater than 100 µM; with PC-3 prostate, greater than 100 µM; with RPMI-8226 leukemia, 48.9 µM. Moreover, the TGI is 37.1 µM with DU-145 prostate, greater than 100 µM with HOP-92 NSCLC, greater than 100 µM in the assay on ACHN renal and greater than 100 µM in the assay with NCI-H23 lung.

In the case of `COc1ccc2nc3c([N+](=O)[O-])ccc4c3c(c2c1)NCCN4CCO`, the TGI is 2.35 µM in the assay with KM12 colon; 3.22 µM with IGROV1 ovarian; 1.88 µM in the assay on SNB-75 CNS; 0.958 µM in the assay with NCI-H226 lung; 1.56 µM in the assay on PC-3 prostate; 2.61 µM in the assay on RPMI-8226 leukemia. Besides, the TGI turned out to be 5.34 µM in the assay with DU-145 prostate, 1.59 µM in the assay with HOP-92 NSCLC, 2.25 µM in the assay on ACHN renal and 2.45 µM in the assay with NCI-H23 lung.

For `NC(N)=N/N=C/c1nc2n(c1[N+](=O)[O-])CCS2`, the TGI is greater than 100 µM in the assay on KM12 colon; greater than 100 µM in the assay on IGROV1 ovarian; 60.2 µM in the assay with SNB-75 CNS; greater than 100 µM in the assay on NCI-H226 lung; greater than 100 µM with PC-3 prostate; greater than 100 µM in the assay with RPMI-8226 leukemia. The TGI is 88.2 µM with DU-145 prostate, greater than 100 µM in the assay with HOP-92 NSCLC, greater than 100 µM with ACHN renal and 42.6 µM in the assay with NCI-H23 lung.

For `O=CN1CCN(C(=O)c2ccc(Cl)cc2Cl)C1=S`, the TGI in the assay on KM12 colon is greater than 100 µM; with IGROV1 ovarian, greater than 100 µM; in the assay on SNB-75 CNS, 85.5 µM; in the assay with NCI-H226 lung it was greater than 100 µM; in the assay on PC-3 prostate, greater than 100 µM; with RPMI-8226 leukemia it was greater than 100 µM. The TGI in the assay with DU-145 prostate was greater than 100 µM; with HOP-92 NSCLC, 98.7 µM; in the assay with ACHN renal, greater than 100 µM; in the assay on NCI-H23 lung, greater than 100 µM.

Regarding `CC(=O)OCCCOCn1c(Cc2ccccc2)c(C)c(=O)[nH]c1=O`, the TGI with KM12 colon, with IGROV1 ovarian, in the assay on SNB-75 CNS, with NCI-H226 lung, in the assay on PC-3 prostate and with RPMI-8226 leukemia was greater than 100 µM in each case. For the same molecule, the TGI with DU-145 prostate, in the assay with HOP-92 NSCLC, in the assay on ACHN renal and with NCI-H23 lung was greater than 100 µM in each case.

`O=S(=O)(c1ccccc1)n1c2ccc(Br)cc2c2nc3ccccc3nc21`: the TGI in the assay on KM12 colon, in the assay with IGROV1 ovarian, with SNB-75 CNS, with NCI-H226 lung, with PC-3 prostate and in the assay with RPMI-8226 leukemia was greater than 100 µM each time. Besides, the TGI with DU-145 prostate, with HOP-92 NSCLC, with ACHN renal and in the assay on NCI-H23 lung was greater than 100 µM throughout.

`C[C@H](CCC(=O)NCCS(=O)(=O)O)[C@H]1CC[C@H]2[C@@H]3CC[C@@H]4C[C@H](O)CC[C@]4(C)[C@H]3CC[C@]12C`: the TGI in the assay with KM12 colon, in the assay with IGROV1 ovarian, with SNB-75 CNS, with NCI-H226 lung, in the assay on PC-3 prostate and in the assay with RPMI-8226 leukemia was greater than 100 µM in each case. For the same molecule, the TGI in the assay on DU-145 prostate, with HOP-92 NSCLC, in the assay with ACHN renal and in the assay on NCI-H23 lung was greater than 100 µM in each case.

On to `CCCN(CCCC(NC(C)=O)C(=O)NCc1ccccc1)C(=O)N(CCCl)N=O` (stereo not given), for which the TGI with KM12 colon is 42.3 µM; in the assay on IGROV1 ovarian it was 57.3 µM; in the assay on SNB-75 CNS, 39.8 µM; in the assay on NCI-H226 lung, 40.1 µM; in the assay on PC-3 prostate, greater than 100 µM; with RPMI-8226 leukemia, 69 µM. In addition, the TGI is greater than 100 µM in the assay with DU-145 prostate, 46.6 µM with HOP-92 NSCLC, 37.5 µM in the assay with ACHN renal and 22.9 µM in the assay with NCI-H23 lung.

With `O=S(=O)(O)c1cc(O)c2c(N=Cc3ccccc3O)cc(S(=O)(=O)O)cc2c1`, the TGI in the assay on KM12 colon, in the assay with IGROV1 ovarian, in the assay on SNB-75 CNS, with NCI-H226 lung, in the assay with PC-3 prostate and with RPMI-8226 leukemia was greater than 100 µM each time. Moreover, the TGI with DU-145 prostate, in the assay with HOP-92 NSCLC, in the assay with ACHN renal and in the assay on NCI-H23 lung was greater than 100 µM throughout.

As for `OC(c1cc2ccccc2o1)c1cc2ccccc2s1` (stereo not given), the TGI with KM12 colon, with IGROV1 ovarian, with SNB-75 CNS, in the assay with NCI-H226 lung, in the assay on PC-3 prostate and in the assay with RPMI-8226 leukemia was greater than 10 µM each time. In addition, the TGI in the assay on DU-145 prostate, in the assay with HOP-92 NSCLC, in the assay on ACHN renal and in the assay on NCI-H23 lung was greater than 10 µM throughout.

As for `[N-]=[N+]=C1N=CN=C1c1ncn[nH]1`, the TGI in the assay with KM12 colon was greater than 100 µM; in the assay with IGROV1 ovarian, greater than 100 µM; with SNB-75 CNS it was greater than 100 µM; in the assay on NCI-H226 lung, greater than 100 µM; in the assay with PC-3 prostate it was greater than 100 µM; with RPMI-8226 leukemia, 38.8 µM. Moreover, the TGI is greater than 100 µM with DU-145 prostate, 45 µM with HOP-92 NSCLC, greater than 100 µM in the assay on ACHN renal and greater than 100 µM in the assay with NCI-H23 lung.
